Our source for the IC50 values is patent US9045486B2, “Pyrimidone derivatives and their use in the treatment, amelioration or prevention of a viral disease” (priority 2013, dated 2015).

SMILES strings stand for the structures.

This test has as its target T1, influenza A virus (IAV) PA-Nter fragment (amino acids 1-209) (Influenza A virus, UniProt P31343).
T1 construct: PA-Nter fragment (amino acids 1-209); made in house
The test is described as follows: FRET endonuclease activity assay. To be noted: 0.5 μM PA-Nter, 1.6 μM dual-labelled RNA substrate; IC50 from initial reaction velocities (v0). Format: biochemical.
Compound `CC(C)N1CCn2c(Cc3ccccc3-c3ccccc3Cl)nc(=O)c(O)c2C1=O` gave an IC50 of 0.657 µM.
For `O=C1NCCn2c(Cc3ccccc3-c3ccccc3)nc(=O)c(O)c21`, the IC50 worked out at 0.06 µM.
For `CC(C)N1CCn2c(Cc3ccccc3-c3ccccc3)nc(=O)c(O)c2C1=O` the value was 0.196 µM.
Next, `CN1CCn2c(Cc3ccccc3-c3ccccc3Cl)nc(=O)c(O)c2C1=O`: 0.175 µM; `CN1CCn2c(CC3(c4ccccc4)CCCC3)nc(=O)c(O)c2C1=O`: 0.116 µM; `CC(C)N1CCn2c(CC3(c4ccccc4)CCCC3)nc(=O)c(O)c2C1=O`: 0.093 µM.
For `CN1CCn2c(CC3(c4ccc(Cl)cc4)CCCC3)nc(=O)c(O)c2C1=O` the value was 0.16 µM.
`CC(C)N1CCn2c(CC3(c4ccc(Cl)cc4)CCCC3)nc(=O)c(O)c2C1=O` registered a 50% inhibitory concentration (IC50) of 0.252 µM.
Next, `CC(N1CCn2c(CC3(c4ccc(Cl)cc4)CCCC3)nc(=O)c(O)c2C1=O)C(F)(F)F` (centres unmarked): 0.296 µM; `O=C1c2c(O)c(=O)nc(CC3(c4ccc(Cl)cc4)CCCC3)n2CCN1c1ccccc1`: 1.18 µM; `CC(C)N1CCn2c(Cc3cccc4ccccc34)nc(=O)c(O)c2C1=O`: 1.81 µM.
Compound `CC(C)N1CCn2c(Cc3cccc(Cl)c3Cl)nc(=O)c(O)c2C1=O` displayed an IC50 of 0.35 µM.
Consider `CC(C)N1CCn2c(Cc3ccccc3-c3cccc(Cl)c3Cl)nc(=O)c(O)c2C1=O`, for which the midpoint of inhibition, the IC50, lay at 0.37 µM.
Next, `CC(C)N1CCn2c(Cc3ccccc3-c3ccc(Cl)c(Cl)c3)nc(=O)c(O)c2C1=O`: 2.51 µM.
For `CC(C)N1CCn2c(Cc3ccccc3-c3ccc(Cl)cc3)nc(=O)c(O)c2C1=O`, half-maximal inhibition (IC50) required 1.37 µM.
Next, `COc1ccc(-c2ccccc2)c(Cc2nc(=O)c(O)c3n2CCN(C(C)C)C3=O)c1`: 0.43 µM.
Compound `CC(c1ccccc1-c1ccccc1)c1nc(=O)c(O)c2n1CCN(C(C)C)C2=O` (centres unmarked) returned an IC50 of 1.7 µM.
In the case of `CC(C)N1CCn2c(Cc3cscc3-c3ccccc3)nc(=O)c(O)c2C1=O`, the IC50 was 1.39 µM.
For `CC(c1ccccc1)N1CCn2c(CC3(c4ccc(Cl)cc4)CCCC3)nc(=O)c(O)c2C1=O` (centres unmarked), the IC50 worked out at 1.13 µM.
For `CC(C)N1CCn2c(CC(C)(C)c3ccccc3)nc(=O)c(O)c2C1=O` the value was 0.25 µM; for `CC(C)N1CCn2c(CC3(c4ccccc4)CCCCC3)nc(=O)c(O)c2C1=O`, 0.12 µM; for `CC(C)N1CCn2c(CC3(c4ccc(Cl)c(Cl)c4)CCCC3)nc(=O)c(O)c2C1=O`, 0.61 µM.
`CC(C)N1CCn2c(CC3(c4cccc(Cl)c4)CCCC3)nc(=O)c(O)c2C1=O` gave an IC50 of 0.32 µM.
Regarding `CC(C)N1CCn2c(CC3(c4ccc5ccccc5c4)CCCC3)nc(=O)c(O)c2C1=O`, the IC50 came to 0.11 µM.
Next, `CC(C)N1CCn2c(Cc3ccccc3-c3cccc(F)c3F)nc(=O)c(O)c2C1=O`: 0.2 µM; `CC(C)N1CCn2c([C@@H]3CCC[C@@H]3c3ccccc3)nc(=O)c(O)c2C1=O`: 0.5 µM; `CC(C)N1CCn2c([C@H]3CCC[C@H]3c3ccccc3)nc(=O)c(O)c2C1=O`: 0.23 µM.
Compound `CC(C)N1CCn2c(CC(C)(C)n3ccc4ccccc43)nc(=O)c(O)c2C1=O` gave an IC50 of 0.24 µM.
Next, `CC(C)N1CCn2c(Cc3cc(O)ccc3-c3ccccc3)nc(=O)c(O)c2C1=O`: 0.146 µM.
Next, `COc1ccc(-c2ccccc2Cc2nc(=O)c(O)c3n2CCN(C(C)C)C3=O)cc1`: 0.122 µM; `CC(C)N1CCn2c(Cc3ccccc3C3CCCCC3)nc(=O)c(O)c2C1=O`: 0.114 µM; `CC(C)N1CCn2c(Cc3ccccc3-c3ccncc3)nc(=O)c(O)c2C1=O`: 0.094 µM.
For `CC(C)N1CCn2c(Cc3ccccc3-c3cccc(F)c3)nc(=O)c(O)c2C1=O` the value was 0.38 µM; for `CC(C)N1CCn2c(Cc3ncccc3-c3ccccc3)nc(=O)c(O)c2C1=O`, 0.38 µM; for `CC(C)N1CCn2c(Cc3ccccc3-c3ccc(F)c(F)c3)nc(=O)c(O)c2C1=O`, 1.06 µM.
The compound `CC(C)c1ccc(-c2ccccc2Cc2nc(=O)c(O)c3n2CCN(C(C)C)C3=O)cc1` had an IC50 of 0.7 µM.
For `CC(C)N1CCn2c(Cc3ccccc3-c3ccc(F)cc3)nc(=O)c(O)c2C1=O`, the IC50 stood at 1.55 µM.
For `CC(C)N1CCn2c(Cc3ccccc3-c3ccc(C#N)cc3)nc(=O)c(O)c2C1=O` the value was 0.3 µM; for `CC(C)N1CCn2c(Cc3ccccc3-c3ccc(C(F)(F)F)c(F)c3)nc(=O)c(O)c2C1=O`, 0.38 µM.
Next, `CC(C)N1CCn2c(Cc3ccccc3-c3ccc(C(F)(F)F)cc3)nc(=O)c(O)c2C1=O`: 0.32 µM; `CC(C)N1CCn2c(Cc3ccccc3-c3ccc(OC(F)(F)F)cc3)nc(=O)c(O)c2C1=O`: 0.55 µM; `CC(C)N1CCn2c(Cc3ccccc3-c3ccc4c(c3)OCO4)nc(=O)c(O)c2C1=O`: 0.229 µM.
Turning to `O=C1c2c(O)c(=O)nc(CC3(c4ccccc4)CCCC3)n2CCN1C1CCCC1`, half-maximal inhibition (IC50) was put at 0.521 µM.
For `CSc1ccc(-c2ccccc2Cc2nc(=O)c(O)c3n2CCN(C(C)C)C3=O)cc1` the value was 0.116 µM; for `O=C1c2c(O)c(=O)nc(CC3(c4ccccc4)CCCC3)n2CCN1C1CCC1`, 0.102 µM; for `CC(C)(C)CN1CCn2c(CC3(c4ccccc4)CCCC3)nc(=O)c(O)c2C1=O`, 0.143 µM.
For `O=C1c2c(O)c(=O)nc(CC3(c4ccccc4)CCCC3)n2CCN1CC1CC1` the value was 0.138 µM; for `O=C1c2c(O)c(=O)nc(CC3(c4ccccc4)CCCC3)n2CCN1C1COC1`, 0.134 µM.
For `O=C1c2c(O)c(=O)nc(CC3(c4ccccc4)CCCC3)n2CCN1C1CC1` the value was 0.098 µM.
Take `O=C1c2c(O)c(=O)nc(CC3(c4ccccc4)CCCC3)n2CCN1C1CCOCC1`: the IC50 came to 0.043 µM.
For `O=C1c2c(OCc3ccccc3)c(=O)nc(CC3(c4ccccc4)CCCC3)n2CCN1C1CCOCC1` the value was more than 25 µM; for `CC(C)N1CCn2c(CC3(c4ccc(C#N)cc4)CCCC3)nc(=O)c(O)c2C1=O`, 0.041 µM.
Next, `CC(C)N1CCn2c(CC3(c4cc(Cl)ccc4Cl)CCCC3)nc(=O)c(O)c2C1=O`: 0.295 µM; `CC(C)N1CCn2c(CC3(c4ccc(C(F)(F)F)cc4)CCCC3)nc(=O)c(O)c2C1=O`: 0.262 µM; `CC(C)N1CCn2c(CC3(c4ccccc4)CCC(F)(F)CC3)nc(=O)c(O)c2C1=O`: 0.084 µM.
Compound `O=C1c2c(O)c(=O)nc(CC3(c4ccccc4)CCCC3)n2CCN1Cc1ccc(F)cc1` yielded an IC50 of 0.422 µM.
Regarding `O=C1c2c(O)c(=O)nc(CC3(c4ccc(Cl)cc4)CCCC3)n2CCN1CC1CC1`, the IC50 turned out to be 0.205 µM.
Next, `O=C1c2c(OCc3ccccc3)c(=O)nc(CC3(c4ccc(Cl)cc4)CCCC3)n2CCN1CC1CC1`: more than 25 µM.
Next, `O=C1c2c(O)c(=O)nc(CC3(c4ccc(Cl)cc4)CCCC3)n2CCN1C1CC1`: 0.73 µM; `O=C1c2c(O)c(=O)nc(CC3(c4cccc5ccccc45)CCCC3)n2CCN1CC1CC1`: 0.14 µM.
With `CN1CCn2c(CC3(c4cccc5ccccc45)CCCC3)nc(=O)c(O)c2C1=O`, inhibition was half-maximal at 0.11 µM (IC50).
In turn, `O=C1c2c(O)c(=O)nc(CC3(c4ccc(Cl)cc4)CCCC3)n2CCN1C1CCOCC1` registered an IC50 of 0.06 µM.
For `O=C1c2c(O)c(=O)nc(CC3(c4cccc5ccccc45)CCCC3)n2CCN1C1CCOCC1` the value was 0.11 µM.
In the case of `O=C1c2c(O)c(=O)nc(CC3(c4cccc5ccccc45)CCCC3)n2CCN1C1CC1`, the IC50 was found to be 0.104 µM.
For `O=C1c2c(O)c(=O)nc(CC3(c4cccc5ccccc45)CCCC3)n2CCN1C1COC1` the value was more than 25 µM; for `O=C1c2c(O)c(=O)nc(CC3(c4cccc5ccccc45)CCCC3)n2CCN1Cc1ccccc1`, 0.67 µM.
Next, `CN1CCn2c(CC3(n4ccc5cccnc54)CCCC3)nc(=O)c(O)c2C1=O`: 0.08 µM.
For `CC(C)N1CCn2c(CC3(n4ccc5cccnc54)CCCC3)nc(=O)c(O)c2C1=O` the value was 0.02 µM.
Consider `O=C1c2c(O)c(=O)nc(CC3(n4ccc5cccnc54)CCCC3)n2CCN1CC1CC1`, for which the IC50 turned out to be 0.141 µM.
`O=C1c2c(OCc3ccccc3)c(=O)nc(CC3(n4ccc5cccnc54)CCCC3)n2CCN1CC1CC1` displayed an IC50 of more than 25 µM.
The compound `O=C1c2c(O)c(=O)nc(CC3(n4ccc5cccnc54)CCCC3)n2CCN1C1COC1` had an IC50 of 0.108 µM.
For `O=C1c2c(O)c(=O)nc(CC3(n4ccc5cccnc54)CCCC3)n2CCN1C1CC1` the value was 0.092 µM; for `O=C1c2c(O)c(=O)nc(CC3(n4ccc5cccnc54)CCCC3)n2CCN1C1CCC1`, 0.173 µM.
The compound `CC(C)N1CCn2c(Cc3ccc(Cl)cc3-c3ccc(F)cc3)nc(=O)c(O)c2C1=O` registered an IC50 of 0.436 µM.
`CC(C)N1CCn2c(Cc3ccc(Cl)cc3-c3ccc(Cl)cc3)nc(=O)c(O)c2C1=O` had a concentration for half-maximal inhibition (IC50) of 0.266 µM.
`CC(C)N1CCn2c(Cc3ccc(Cl)cc3-c3cccnc3)nc(=O)c(O)c2C1=O` came in with a half-inhibitory concentration (IC50) of 0.081 µM.
`CC(C)N1CCn2c(Cc3ccc(Cl)cc3-c3ccncc3)nc(=O)c(O)c2C1=O` gave an IC50 of 0.11 µM.
Regarding `CC(C)N1CCn2c(Cc3ccc(Cl)cc3Br)nc(=O)c(OCc3ccccc3)c2C1=O`, the IC50 was more than 25 µM.
For the compound `CC(C)N1CCn2c(CC3(c4cccc5ccccc45)CCCC3)nc(=O)c(O)c2C1=O`, it took 0.27 µM to reach half-maximal inhibition (IC50).
In turn, `CC(C)N1CCn2c(CC3(c4cc(C(F)(F)F)cc(C(F)(F)F)c4)CCCC3)nc(=O)c(O)c2C1=O` came in with an IC50 of 0.318 µM.
As for `CC(C)N1CCn2c(CC3(c4cccc(C(F)(F)F)c4)CCCC3)nc(=O)c(O)c2C1=O`, half-maximal inhibition (IC50) required 0.46 µM.
Compound `CC(C)N1CCn2c(-c3ccccn3)nc(=O)c(O)c2C1=O` returned an IC50 of 1.89 µM.
Next, `O=C1c2c(O)c(=O)nc(CC3(c4ccc(Cl)cc4)CCCC3)n2CCN1Cc1ccccc1`: 0.99 µM; `O=C1NCCn2c(CC3(c4ccc(Cl)cc4)CCCC3)nc(=O)c(O)c21`: 1.27 µM.
Regarding `CC(C)N1CCn2c(CC3(c4ccccn4)CCCC3)nc(=O)c(O)c2C1=O`, inhibition was half-maximal at 0.097 µM (IC50).
For `CN1CCn2c(CC3(c4ccccn4)CCCC3)nc(=O)c(O)c2C1=O` the value was 0.063 µM.
